Experimental data reported in patent US20230277583A1, “ENTERAL CARBON MONOXIDE FOR THE PREVENTION AND TREATMENT OF OCULAR DISEASES” (Augusta University Research Institute, Inc., priority 2022, published 2023).

Key:
[1] = low dose CO reaching <20% COHb saturation; cited from earlier work
[2] = CO concentration achievable in aqueous composition at various temperature and pressure; type: physicochemical
Method: For example, CO can be dissolved in an aqueous liquid under higher than ambient pressure. The use of pressure to dissolve the CO increases the achievable concentration of CO in solution. […] For example, lowering of the temperature below 2° C. and increasing the pressure above 10 ATM can achieve an even greater concentration of CO dissolved in the aqueous solution. […] Although raising the pressure above 10 ATM might not be commercially practicable, it is technologically feasible at this time.
The method of making a CO-containing liquid composition relies on the use of greater than atmospheric pressure (i.e., “high” pressure) to increase the amount of CO dissolved in the liquid composition. In some embodiments, at least 1.1 atmospheres (ATM) of pressure is used in the process of introducing CO into the liquid composition. Preferably, where high pressure is used, at least 1.2 ATM is used. In certain exemplary embodiments, 2 ATM, 3 ATM, or 5 ATM is used during introduction of CO into the liquid composition. It is contemplated that pressures above 5 ATM are also suitable, such as 6 ATM, 7 ATM, 8 ATM, and 10 ATM or higher. In accordance with the discussion concerning ranges set forth above, all specific values, and all possible ranges, falling within the atmospheric conditions discussed herein are contemplated. Furthermore, variations in the source of CO, the equipment used to introduce the CO into the liquid composition, the pressure of the CO being used (i.e., volume supplied per unit time), and the atmospheric pressures used will affect the amount of time required to achieve a suitable concentration of CO in the composition.
The method of making a CO-containing liquid composition preferably includes subjecting the composition to a low temperature during the step of exposing the liquid to CO. […] A low temperature is typically a temperature at or below 4° C., preferably at or below 2° C., such as 1° C., 0° C., −1° C., −2° C., −3° C., −4° C., −5° C., −6° C., −10° C., −12° C., −14° C., −16° C., −18° C., −20° C., or below. In embodiments where the composition is exposed to a low temperature, it is preferred that the CO-containing liquid composition be sealed to preclude loss of dissolved CO over time. Accordingly, in embodiments, the method of making a CO-containing liquid composition includes dispensing the liquid composition into a sealable container and sealing the container after an appropriate amount of CO has been dissolved in the liquid composition. Dispensing of the liquid can be performed before, during, or after dissolving CO into the liquid composition. Typically, sealing will be performed under low temperature to minimize loss of dissolved CO during the process of sealing. As discussed above, any number of sealable containers and caps are known in the art of bottling and canning of liquids, and any of these can be used within the context of the present disclosure. For the sake of clarity, in embodiments where both high pressure and low temperature are used, it is preferred that sealing be performed under both high pressure and low temperature, although the same pressure and temperature used for dissolving CO into the liquid need not be used. Further, it is to be understood that, once the CO-containing liquid is sealed in a container under CO gas, it is not necessary to maintain the sealed container at high pressure and low temperature, as the sealed container will not allow dissolved CO to escape from solution.

[3] = cited from earlier work

Question: Which results are given for `[C-]#[O+]` [CO, carbon monoxide]?
Answer: safety and tolerability [1]: safe and tolerable; CO Concentration Achievable in Aqueous Composition ([2]; 2° C., 1 ATM): 40 mg/L water; CO Concentration in Aqueous Solution ([2]; 2° C., 1 ATM): 40 mg/L water; CO Concentration Achievable in Aqueous Composition ([2]; 2° C., 2 ATM): 80 mg/L water; CO Concentration in Aqueous Solution ([2]; 2° C., 2 ATM): 80 mg/L water; CO Concentration Achievable in Aqueous Composition ([2]; 2° C., 3 ATM): 120 mg/L water; CO Concentration in Aqueous Solution ([2]; 2° C., 3 ATM): 120 mg/L water; CO Concentration Achievable in Aqueous Composition ([2]; 2° C., 5 ATM): 200 mg/L water; CO Concentration in Aqueous Solution ([2]; 2° C., 5 ATM): 200 mg/L water; CO Concentration Achievable in Aqueous Composition ([2]; 2° C., 10 ATM): 400 mg/L water; CO Concentration in Aqueous Solution ([2]; 2° C., 10 ATM): 400 mg/L water; CO Concentration Achievable in Aqueous Composition ([2]; 21° C., 1 ATM): 25 mg/L water; half-life of the alpha-phase of CO in the human bloodstream [3]: 4 to 6 h
